Source: patent US8741932B2, “Imidazopyridine derivatives” (Piramal Enterprises Limited, priority 2009, dated 2014)

What was measured:
IL-6 [1] = test: Human monocyte assay, LPS-stimulated IL-6; format: cell-based; conditions: Monocyte; human monocytes, 1 μg/ml LPS, 5 hours
Outline: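 Adherent human PBMC-derived monocytes (2×10^4/well) were cultured 48 h, preincubated 30 min with compound or 0.5% DMSO, then stimulated with 1 μg/ml E. coli LPS for 5 h at 37° C. TNF-α and IL-6 in supernatants were measured by ELISA.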

TNF-α [2] = test: Synovial tissue assay, TNF-α; format: cell-based; conditions: Homo sapiens; synovial tissue cells from rheumatoid arthritis patients, 16 hours
Protocol: (§1) The assay was designed as in the reference, Lancet, 2(8657), 244-7, Jul.
(§2) Stock Solution: Compounds of the present invention were dissolved in DMSO to obtain a stock solution of 20 mM.
(§3) Synovial tissue was obtained from rheumatoid arthritis patients undergoing knee replacement surgery. The tissue was minced into small pieces and digested in RPMI medium containing 100 U/ml penicillin-G, 100 μg/ml streptomycin, 50 ng/ml amphotericin B (GIBCO; USA), 1.33 mg/ml collagenase Type I (Worthington Biochemical Corporation, New Jersey), 0.5 μg/ml DNAse Type I (Sigma Aldrich; St. Louis, Mo.) and 8.33 U/ml heparin (Biological E. Limited, India) for 3 hours at 37° C., 5% CO2. The digested tissue was filtered through a membrane (mesh size 70 micron; Sigma Aldrich). Subsequently, the cells were washed 3 times and resuspended in complete medium (RPMI supplemented with 5% FBS and 5% human serum-AB+) at a concentration of 1×10^6 cells/ml. All cell washes in this assay were performed using Rosewall Park Memorial Institute (RPMI)-1640 medium (JRH; Australia). For the experiment, 100 μl of cell suspension was added to the wells of a 96-well culture plate. Following cell plating, 100 μl of the culture medium and 1 μl of various concentrations (0.01, 0.03, 0.1, 0.3, 1, 3, 10, 30 and 100 μM) of the compounds of present invention dissolved in DMSO were added to the cells. The final concentration of DMSO was adjusted to 0.5%. For experimental purposes, 1 μl of […] concentrated solution of the compounds of present invention were dissolved in 200 μl cell suspension to achieve a final concentration of 0.01, 0.03, 0.1, 0.3, 1, 3, 10, 30 and 100 μM. The vehicle (0.5% DMSO) was used as control. 10 μM dexamethasone (Sigma Aldrich) or 1 μM 7-hydroxyfluorinide (7HF) were used as standards for the experiments. The plates were incubated for 16 hours at 37° C., 5% CO2. Subsequently, the supernatants were harvested and stored at −70° C. The amounts of TNF-α, IL-6 and interleukin-8 (IL-8) in the supernatants were assayed using OptiEIA ELISA sets, (BD BioSciences Pharmingen). The protocol followed was as per manufacturers instructions. […] The cytotoxicity of test compounds in synovial cells was assessed by MTS assay. Absorbance was measured at 490 nm. Percent cytotoxicity was calculated by the equation: % Cytotoxicity=(A−B)/A×100 where, A is the absorbance of cells treated with DMSO alone and B is the absorbance of cells treated with the test article.

HCT116 = test: Cytotoxicity assay (propidium iodide), HCT116; format: cell-based; conditions: Homo sapiens, HCT-116; HCT116 (C4b, colon); 48 hours
Protocol: (§4) Cells from cell lines as mentioned in the table given below were seeded at a density of 3000 cells/well in a white opaque 96-well plate. Following incubation at 37° C./5% CO2 for a period of 18-24 hours, the cells were treated with various concentrations (stock solution was prepared in DMSO and subsequent dilutions were made in media as per ATCC guidelines) of the representative compounds of present invention (refer table 3) for a period of 48 hours. At the end of treatment, the spent culture medium was discarded, the cells were washed with 1×PBS and 200 μl of 7 μg/ml propidium iodide was added to each well. The plates were frozen at −70° C. for at least 24 hours. For analysis, the plates were brought to RT, allowed to thaw and were read in PolarStar fluorimeter with the fluorescence setting. The percentage of viable cells in the non treated set of wells was considered to be 100 and the percentage viability following treatment was calculated accordingly. IC50 values were calculated from graphs plotted using these percentages.

TNF-α [3] = test: Human monocyte assay, LPS-stimulated TNF-α; format: cell-based; conditions: human monocytes, 1 μg/ml LPS, 5 hours
Protocol: The assay was designed as in the reference, Physiol.
Peripheral blood mononuclear cells (hPBMC) were harvested from human blood and suspended in RPMI 1640 culture medium containing 10% FCS, 100 U/mL penicillin and […] streptomycin (assay medium). Monocytes in the hPBMCs were counted using a Coulter Counter following which the cells were resuspended at 2×10^5 monocytes/mL. A cell suspension containing 2×10^4 monocytes was aliquoted per well of a 96-well plate. Subsequently, the hPBMCs were incubated for 4-5 hours at 37° C., 5% CO2 (During the incubation, the monocytes adhered to the bottom of 96-well plastic culture plate). Following the incubation, the non-adherent lymphocytes were washed with assay medium and the adherent monocytes re-fed with assay medium. After a 48-hour incubation period (37° C., 5% CO2), monocytes were pretreated with various concentrations of representative compounds of present invention (refer to table 6 and 7) (prepared in DMSO) or vehicle (0.5% DMSO) for 30 minutes and stimulated with 1 μg/ml LPS (Escherchia coli 0111:B4, Sigma Chemical Co., St. Louis, Mo.). The incubation was continued for 5 hours at 37° C., 5% CO2. Supernatants were harvested, assayed for IL-6 and TNF-α by ELISA as described by the manufacturer (BD Biosciences, USA). Dexamethasone (10 μM) was used as standard for this assay. […] Biological results for both IL-6 and TNFα are indicated in Table 6 and Table 7 respectively.

A549 = test: Cytotoxicity assay (propidium iodide), A549; format: cell-based; conditions: Homo sapiens; A549 (C1a, lung); 48 hours
Protocol: as §4

A2780 = test: Cytotoxicity assay (propidium iodide), A2780; format: cell-based; conditions: Homo sapiens; A2780 (C3a, ovarian); 48 hours
IL-6 [4] = test: Synovial tissue assay, IL-6; format: cell-based; conditions: Homo sapiens; synovial tissue cells from rheumatoid arthritis patients, 16 hours
Protocol: as §1, §2, §3

IL-8 = test: Synovial tissue assay, IL-8; format: cell-based; conditions: Homo sapiens; synovial tissue cells from rheumatoid arthritis patients, 16 hours
Protocol: as §1, §2, §3

PI3Kα kinase = molecular target: T1, PI3Kα kinase (Homo sapiens, UniProt P42336); test: Kinase assay (PI3Kα); format: biochemical; conditions: read-out: IC50 (μM) for PI3K inhibition
T1 construct: purchased Millipore, USA
T1 sequence (P42336 whole entry): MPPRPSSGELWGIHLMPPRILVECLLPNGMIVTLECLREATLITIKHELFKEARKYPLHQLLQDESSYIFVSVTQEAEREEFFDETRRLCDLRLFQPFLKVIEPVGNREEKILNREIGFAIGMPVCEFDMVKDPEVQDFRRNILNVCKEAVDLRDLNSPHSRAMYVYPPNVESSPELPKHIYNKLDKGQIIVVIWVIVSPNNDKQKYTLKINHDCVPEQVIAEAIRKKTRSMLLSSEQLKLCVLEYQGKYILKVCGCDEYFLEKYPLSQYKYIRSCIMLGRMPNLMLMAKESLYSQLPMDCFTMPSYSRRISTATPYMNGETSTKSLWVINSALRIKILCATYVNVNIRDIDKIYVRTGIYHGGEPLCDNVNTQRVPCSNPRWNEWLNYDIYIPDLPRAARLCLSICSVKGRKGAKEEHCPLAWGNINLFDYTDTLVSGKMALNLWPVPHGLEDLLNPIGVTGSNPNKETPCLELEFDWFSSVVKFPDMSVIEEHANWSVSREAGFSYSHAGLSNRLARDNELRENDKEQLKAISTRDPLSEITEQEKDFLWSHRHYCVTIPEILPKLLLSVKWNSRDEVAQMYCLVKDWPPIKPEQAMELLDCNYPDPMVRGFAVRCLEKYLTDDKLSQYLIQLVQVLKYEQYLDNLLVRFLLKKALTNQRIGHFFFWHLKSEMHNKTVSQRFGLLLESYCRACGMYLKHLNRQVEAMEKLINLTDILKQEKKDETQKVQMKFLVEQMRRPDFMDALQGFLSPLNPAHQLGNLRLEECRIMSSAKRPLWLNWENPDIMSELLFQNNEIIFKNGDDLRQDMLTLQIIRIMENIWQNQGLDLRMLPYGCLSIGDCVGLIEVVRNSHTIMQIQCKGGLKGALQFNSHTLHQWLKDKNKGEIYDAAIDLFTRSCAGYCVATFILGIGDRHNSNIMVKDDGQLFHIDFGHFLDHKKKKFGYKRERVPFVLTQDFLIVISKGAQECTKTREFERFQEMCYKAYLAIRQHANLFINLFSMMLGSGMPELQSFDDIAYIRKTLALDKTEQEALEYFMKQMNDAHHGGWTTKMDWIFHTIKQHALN
T1 sequence (P27986 whole entry partner): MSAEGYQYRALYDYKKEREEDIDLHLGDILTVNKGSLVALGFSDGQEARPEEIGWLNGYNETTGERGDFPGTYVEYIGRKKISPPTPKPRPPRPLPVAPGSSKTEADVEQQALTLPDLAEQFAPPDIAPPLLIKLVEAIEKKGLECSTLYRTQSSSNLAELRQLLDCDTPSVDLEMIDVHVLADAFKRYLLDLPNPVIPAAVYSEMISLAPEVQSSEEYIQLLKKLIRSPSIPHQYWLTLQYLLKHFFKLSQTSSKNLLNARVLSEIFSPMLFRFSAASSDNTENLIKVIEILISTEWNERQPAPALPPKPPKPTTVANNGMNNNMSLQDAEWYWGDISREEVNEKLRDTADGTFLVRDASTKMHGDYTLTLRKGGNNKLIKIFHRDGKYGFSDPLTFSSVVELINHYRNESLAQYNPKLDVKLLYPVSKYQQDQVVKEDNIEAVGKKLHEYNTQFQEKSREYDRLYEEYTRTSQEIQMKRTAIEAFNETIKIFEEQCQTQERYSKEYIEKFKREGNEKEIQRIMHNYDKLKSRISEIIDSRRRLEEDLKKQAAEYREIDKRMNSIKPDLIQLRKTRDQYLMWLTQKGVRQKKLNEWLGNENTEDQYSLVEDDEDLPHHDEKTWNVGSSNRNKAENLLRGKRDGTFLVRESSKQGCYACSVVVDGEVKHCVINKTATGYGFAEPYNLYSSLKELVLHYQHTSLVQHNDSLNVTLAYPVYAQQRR
Outline: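 Recombinant PI3Kα (20 ng) phosphorylated 12.5 μg phosphatidylinositol with 10 μM ATP and 1 μCi ^32γ P […] in 10 mM Hepes pH 7.5, 50 mM MgCl2 for 20 min at 30° C. Lipids were extracted with MeOH/CHCl3, resolved by TLC, and labelled PI quantified by autoradiography densitometry; PI-103 served as standard.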

T47D = test: Cytotoxicity assay (propidium iodide), T47D; format: cell-based; conditions: Homo sapiens; T47D (C6e, breast); 48 hours
Protocol: as §4

SKOV3 = test: Cytotoxicity assay (propidium iodide), SKOV3; format: cell-based; conditions: Homo sapiens, SK-OV-3; SKOV3 (C3b, ovarian); 48 hours
Protocol: as §4

PANC 1 = test: Cytotoxicity assay (propidium iodide), PANC 1; format: cell-based; conditions: Homo sapiens; PANC 1 (C5a, pancreatic); 48 hours
Protocol: as §4

OVCAR 3 = test: Cytotoxicity assay (propidium iodide), OVCAR 3; format: cell-based; conditions: Homo sapiens; OVCAR 3 (C3c, ovarian); 48 hours
Protocol: as §4

| SMILES | IC50 (IL-6 [1]) [µM] | IC50 (TNF-α [2]) [µM] | IC50 (TNF-α [3]) [nM] | IC50 (IL-6 [4]) [µM] | IC50 (IL-8) [µM] | IC50 (PI3Kα kinase) [µM] | IC50 (HCT116) [nM] | IC50 (A549) [nM] | IC50 (A2780) [nM] | IC50 (T47D) [µM] | IC50 (SKOV3) [nM] | IC50 (PANC 1) [nM] | IC50 (OVCAR 3) [nM] |
| --- | --- | --- | --- | --- | --- | --- | --- | --- | --- | --- | --- | --- | --- |
| CN(N=Cc1cnc2ccc(-c3cccnc3)cn12)S(=O)(=O)c1cc(F)cc(F)c1 [Example 16, 3,5-Difluoro-N-methyl-N′-((6-(pyridine-3-yl)imidazo[1,2-a]pyridine-3-yl)methylene) benzenesulfonohydrazide] | 0.001 to 5 | 0.01 to 0.3 | 1 to 1000 | 0.01 to 0.3 | 0.3 to 3 | 0.5 to 1 | – | – | – | – | – | – | – |
| Cc1ccc(F)cc1S(=O)(=O)N(C)N=Cc1cnc2ccc(-c3cccnc3)cn12 [Example 21, 5-Fluoro-N, 2-dimethyl-N′-((6-(pyridine-3-yl)imidazo[1,2-a]pyridine-3-yl)methylene) benzenesulfonohydrazide] | 0.001 to 5 | 0.01 to 0.3 | 1 to 1000 | 0.01 to 0.3 | 0.01 to 0.3 | 0.01 to 0.5 | 10 to 5000 | 10 to 5000 | 10 to 5000 | – | 10 to 5000 | 10 to 5000 | 10 to 5000 |
| Cc1ccc([N+](=O)[O-])cc1S(=O)(=O)N(C)N=Cc1cnc2ccc(-c3cccnc3)cn12 [Example 25] | 0.001 to 5 | 0.01 to 0.3 | – | 0.01 to 0.3 | 0.3 to 3 | 0.01 to 0.5 | 10 to 5000 | 10 to 5000 | 10 to 5000 | 0.01 to 5 | 10 to 5000 | 10 to 5000 | 10 to 5000 |

Further lines, with some results ahead:

| IC50 (IL-6 [1]) [µM] | IC50 (TNF-α [2]) [µM] | IC50 (TNF-α [3]) [nM] | IC50 (IL-6 [4]) [µM] | IC50 (IL-8) [µM] | IC50 (PI3Kα kinase) [µM] | SMILES | IC50 (HCT116) [nM] | IC50 (A549) [nM] | IC50 (A2780) [nM] | IC50 (T47D) [µM] | IC50 (SKOV3) [nM] | IC50 (PANC 1) [nM] | IC50 (OVCAR 3) [nM] |
| --- | --- | --- | --- | --- | --- | --- | --- | --- | --- | --- | --- | --- | --- |
| 0.001 to 5 | 0.01 to 0.3 | 1000 to 15000 | 0.01 to 0.3 | 0.3 to 3 | 0.5 to 1 | CN(N=Cc1cnc2ccc(-c3cccnc3)cn12)S(=O)(=O)c1cccc(F)c1 [Example 5, 3-Fluoro-N-methyl-N′-((6-(pyridine-3-yl)imidazo[1,2-a]pyridine-3-yl)methylene)benzenesulfonohydrazide] | 10 to 5000 | 10 to 5000 | 10 to 5000 | > 5 | 10 to 5000 | 10 to 5000 | 10 to 5000 |
| 0.001 to 5 | 0.01 to 0.3 | 1 to 1000 | 0.3 to 3 | 0.3 to 3 | 0.5 to 1 | CN(N=Cc1cnc2ccc(-c3cccnc3)cn12)S(=O)(=O)c1ccc(F)cc1 [Example 6, 4-Fluoro-N-methyl-N′-((6-(pyridine-3-yl)imidazo[1,2-a]pyridine-3-yl)methylene)benzenesulfonohydrazide] | 10 to 5000 | 10 to 5000 | 10 to 5000 | > 5 | – | 10 to 5000 | 10 to 5000 |
